Experimental data published in patent publication US20060094783A1 (Tava Pharmaceutical Industries, Ltd., priority 1990, published 2006).
Structures can show the parent of a compound that is named as a salt.

Legend:
[1] = system: haloperidol-induced catalepsy in mice; test: Reversal of haloperidol-induced catalepsy in mice; format: in vivo, mouse; conditions: for Score + SE: haloperidol 6 mg/kg s.c., max score 12; for % of control: score vs saline control
Procedure: All drugs were administered i.p. in a volume of 0.2 mL. Two hours later, haloperidol was injected s.c. at a dose of 6 mg/kg in a volume of 0.1-0.2 mL. Motor coordination tests were made at 3 hours after giving haloperidol, that is, 5 hours after administering the presumed protective drugs.
Motor coordination tests and rigidity were quantified according to three different parameters: (a) ability to walk the length of a horizontal rod, 80 cm-long; (b) ability to climb down, face down, a vertical rod, 80 cm-long; (c) duration of immobility in an unnatural sitting posture whereby the abdomen of the mouse is pressed against a “wall.” Full performance as in haloperidol-untreated mice is given the score of 4 in each test, or a total of 12 in all tests. Poor performance is given a score from 1 to 3.

[2] = system: α-MpT-induced hypokinesia in rats; test: Reversal of α-MpT-induced hypokinesia in rats; format: in vivo, rat; conditions: for Score + SE (total motor activity, 10 hours): α-MpT 100 mg/kg i.p.
Procedure: The drug α-MpT is assumed to inhibit the formation of L-DOPA from tyrosine, and consequently the formation of dopamine itself. Lack of CNS dopamine is expressed as hypoactivity. […] Two hours later they received i.p. α-MpT at a dose of 100 mg/kg in 0.3-0.5 mL. Controls received saline. Following this, motor activity was recorded in a computerized activity cage for the duration of 10 hours.

[3] = system: cardiovascular effects in animals; conditions: cited from earlier work
MAO-B = target: T1, MAO-B (Rattus norvegicus, UniProt P19643); test: Inhibition of MAO activity in vivo, acute treatment, MAO-B; design: in a rat brain preparation of MAO; host or cells: rat brain preparation
T1 sequence (P19643 1-520): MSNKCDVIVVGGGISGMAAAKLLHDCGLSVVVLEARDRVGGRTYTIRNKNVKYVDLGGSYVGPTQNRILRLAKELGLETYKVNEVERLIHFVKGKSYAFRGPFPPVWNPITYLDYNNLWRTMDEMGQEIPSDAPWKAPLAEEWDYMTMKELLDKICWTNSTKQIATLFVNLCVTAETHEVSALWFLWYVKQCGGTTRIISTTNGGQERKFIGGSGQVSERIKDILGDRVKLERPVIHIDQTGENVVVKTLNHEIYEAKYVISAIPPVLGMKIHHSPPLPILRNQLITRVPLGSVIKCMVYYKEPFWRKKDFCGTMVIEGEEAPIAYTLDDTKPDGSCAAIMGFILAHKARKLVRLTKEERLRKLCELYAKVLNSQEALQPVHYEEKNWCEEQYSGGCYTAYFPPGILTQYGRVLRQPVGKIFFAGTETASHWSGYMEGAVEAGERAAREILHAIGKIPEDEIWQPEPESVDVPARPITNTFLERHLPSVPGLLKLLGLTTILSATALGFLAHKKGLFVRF

MAO-A = target: T2, MAO-A (Rattus norvegicus, UniProt P21396); test: Inhibition of MAO activity in vivo, acute treatment, MAO-A; conditions: rat
T2 construct: MAO activity determined in brain and liver; from tissue; host or cells: brain and liver of male Sprague-Dawley-derived rats
T2 sequence (P21396 1-526): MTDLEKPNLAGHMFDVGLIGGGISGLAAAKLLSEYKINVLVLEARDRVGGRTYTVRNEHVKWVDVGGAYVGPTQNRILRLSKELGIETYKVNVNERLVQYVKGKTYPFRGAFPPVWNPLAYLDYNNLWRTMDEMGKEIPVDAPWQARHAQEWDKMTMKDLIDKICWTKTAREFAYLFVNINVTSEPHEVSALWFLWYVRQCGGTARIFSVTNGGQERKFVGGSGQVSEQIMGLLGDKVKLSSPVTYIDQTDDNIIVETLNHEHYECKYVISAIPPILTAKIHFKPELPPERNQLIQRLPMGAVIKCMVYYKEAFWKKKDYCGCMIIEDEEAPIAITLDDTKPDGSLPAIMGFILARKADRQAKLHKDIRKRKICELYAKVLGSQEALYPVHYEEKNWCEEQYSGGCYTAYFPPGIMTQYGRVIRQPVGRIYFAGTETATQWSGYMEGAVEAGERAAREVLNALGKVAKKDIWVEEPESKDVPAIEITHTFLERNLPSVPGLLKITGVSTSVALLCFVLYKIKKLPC

[4] = system: maximal electroshock seizures in rats; test: Maximal electroshock test (MES test) in rats; format: in vivo, rat; conditions: p.o., 50 mg/kg
Description: The MES test is a classical model to indicate efficacy for partial and generalized seizures in humans. The agents' mechanism of action is via their ability to prevent the spread of seizures. Some agents, however, that prevent seizure spread have the side effect of lowering seizure threshold. These agents therefore have both proconvulsive and anticonvulsive side effects.

guinea-pig ileum = test: Antagonism of bethanechol-induced (fixed dose) contractions of guinea-pig ileum; conditions: bethanechol 0.8 μM
[5] = system: neonatal rat cerebellum cell cultures; conditions: 0.01 μM + NMDA
Procedure: Procedures: cultures of mechanically dissociated neonatal rat cerebellum. […] The cerebella are then dissociated after 20-25 passages through a sterile 13 gauge, 10 cm long stainless steel needle attached to a 5 ml syringe with an inserted 45 μm pore size nylon sieve. The dissociated cells are centrifuged at 200 g for 5 minutes, the supernatant discarded and the cells resuspended in enriched medium. The cell viability is determined by the trypan blue exclusion test. […] After 4 days in culture, the media are replaced with media containing the desired test compounds. Experiments are done in duplicate and repeated 2 or 3 times. […] Nerve cell survival is evaluated by phase contrast microscopy and trypan blue staining after 24 h.
Values, expressed as the percent of untreated controls, represent the average of 2 experiments run in duplicate for culture experiments, and the mean±SEM of 4 animals for ischemia. The percent protection value is the effect of the test compound after subtraction of the solvent effect.

[6] = Appearance of PAI salts under destructive conditions; format: physicochemical
Procedure: Comparative stability studies were carried out under sets of several accelerating conditions: I) heating at 80° C. for 72, 96 or 144 hours; and II) reflux in isopropanol for 30 hours. The degradation products developed were measured by HPLC and confirmed by TLC. The results are presented in Table 9 with the relative retention time (relative to the PAI peak; RRT) as an area percentage relative to ? integrated peak area.
The salts were submitted to visual inspection of color an form.

[7] = Physicochemical properties of PAI salts; conditions: for pH: 1% aqueous solution of the PAI salt
Procedure: The melting range was measured with an automatic apparatus (Mettler FP 80) and thermo-gravimetric analysis was performed on a Mettler TA 3000 system at a rate of 10° C./min in the applicable range. […] The pH was measured in a 1% aqueous solution of the PAI salts.

C#CCNC1CCc2ccccc21 (racemic) [Rac PAI Mesylate]
Score + SE ([1]; 3.0 mg/kg i.p. (free base)): 5.9 ± 0.7 | % of control ([1]; 3.0 mg/kg i.p.): 49% | protection against haloperidol (in words) ([1]; 5 mg/kg): not active | Score + SE ([1]; 5.0 mg/kg i.p. (free base)): 6.4 ± 0.4 | % of control ([1]; 5.0 mg/kg i.p.): 53% | Score + SE ([1]; 10 mg/kg i.p. (free base)): 9.2 ± 0.6 | % of control ([1]; 10 mg/kg i.p.): 77% | Score + SE ([1]; 15 mg/kg i.p. (free base)): 8.8 ± 0.8 | % of control ([1]; 15 mg/kg i.p.): 73% | restoration of motor activity (in words) ([2]; 2 mg/kg): not active | % of control ([2]; 2 mg/kg i.p., vs saline control): 57% | Score + SE (total motor activity, 10 hours) ([2]; 2 mg/kg i.p.): 9,035 ± 829 | Score + SE (total motor activity, 10 hours) ([2]; 5 mg/kg i.p.): 10,926 ± 820 | Score + SE (total motor activity, 10 hours) ([2]; […] i.p.): 9,698 ± 557

C#CCNC1CCc2ccccc21 (racemic) [Rac, N-propargyl-1-aminoindan]
blood pressure ([3]; comparative animal tests): does not increase blood pressure | tachycardia ([3]; comparative animal tests): no significant tachycardia | IC-50 MAO-B (MAO-B; I.P., brain, 1 h after dose): 0.22 mg/kg | IC-50 MAO-B (MAO-B; I.P., liver, 1 h after dose): 0.11 mg/kg | IC-50 MAO-B (MAO-B; P.O., liver, 2 h after dose): 0.09 mg/kg | IC-50 MAO-A (MAO-A; I.P., liver, 1 h after dose): 5 mg/kg | IC-50 MAO-A (MAO-A; P.O., brain, 2 h after dose): >5 mg/kg | IC-50 MAO-A (MAO-A; P.O., liver, 2 h after dose): >5 mg/kg

C#CCNC1CCc2ccccc21.Cl (racemic) [racemic PAI.HCl, Racemic N-propargyl-1-aminoindan hydrochloride]
potentiation of the cardiovascular effects of tyramine ([3]; Finberg et al.): does not potentiate

C#CCN[C@@H]1CCc2ccccc21.Cl [(R)-PAI HCl, R-(+)-N-Propargyl-1-aminoindan hydrochloride]
animals protected from seizures [4]: three out of four | Percent relaxation (guinea-pig ileum; PAI concentration 20 μM): 25 | Percent relaxation (guinea-pig ileum; PAI concentration 60 μM): 25-50 | Percent relaxation (guinea-pig ileum; PAI concentration 100 μM): 50-70 | Percent relaxation (guinea-pig ileum; PAI concentration 300 μM): 100

NCCCNCCCCNCCCN [Spermine, reference compound]
Surviving Cells (percent of untreated controls) [5]: 75 | Percent Protection ([5]; after subtraction of solvent effect): 65

Cl [chloride]
appearance: color ([6]; 80° C./72 h): white | appearance: form ([6]; 80° C./72 h): powder | appearance: color ([6]; 80° C./144 h): white | appearance: form ([6]; 80° C./144 h): powder | appearance: color ([6]; reflux in iPrOH/30 h): off white | appearance: form ([6]; reflux in iPrOH/30 h): powder

C#CCN[C@@H]1CCc2ccccc21.CCS(=O)(=O)O [esylate]
appearance: color ([6]; 80° C./72 h): brownish | appearance: form ([6]; 80° C./72 h): melted | appearance: color ([6]; 80° C./144 h): dark brown | appearance: form ([6]; 80° C./144 h): melted | appearance: color ([6]; reflux in iPrOH/30 h): dark brown | appearance: form ([6]; reflux in iPrOH/30 h): melted | pH [7]: 2.4

C#CCN[C@@H]1CCc2ccccc21.C#CCN[C@@H]1CCc2ccccc21.O=S(=O)(O)O [sulphate]
appearance: color ([6]; 80° C./72 h): off white | appearance: form ([6]; 80° C./72 h): powder | appearance: color ([6]; 80° C./144 h): off white | appearance: form ([6]; 80° C./144 h): powder | appearance: color ([6]; reflux in iPrOH/30 h): brown | appearance: form ([6]; reflux in iPrOH/30 h): powder | pH [7]: 3.9 | % Wt. loss ([7]; thermo-gravimetric analysis, 10° C./min): 3.2%

maleate
appearance: color ([6]; 80° C./72 h): brown | appearance: form ([6]; 80° C./72 h): melted | appearance: color ([6]; 80° C./96 h): brown | appearance: color ([6]; reflux in iPrOH/30 h): brown | appearance: form ([6]; reflux in iPrOH/30 h): melted

phosphate
appearance: color ([6]; 80° C./72 h): brownish | appearance: form ([6]; 80° C./72 h): powder | appearance: color ([6]; 80° C./144 h): brown | appearance: form ([6]; 80° C./144 h): powder | appearance: color ([6]; reflux in iPrOH/30 h): brown | appearance: form ([6]; reflux in iPrOH/30 h): powder | pH [7]: 7.0
